Results on 3 compounds are retold here after patent US20140323304A1, “HERBICIDE COMPOSITION AND WEED CONTROL METHOD” (SDS BIOTECH K.K., priority 2008, published 2014).

Holding throughout (assay): Pot test on the foliar application (post-emergence treatment of weeds)
What all share (type): in vivo
Holding throughout (details): day 10

Experiment [1] relates to Amaranthus viridis. The procedure:
(§1) Field soil was packed in a 350 cm^2 plastic pot and seeds of Echinochloa utilis, Digitaria adscendens, Avena fatua, Amaranthus viridis, Chenopodium album and Ipomoea purpurea were sown and covered with soil of about 1 cm thickness. After water absorption and at day 25 after the seeding, sugi-refined oil diluted with a stock solution or water was sprayed uniformly in a spray volume of 200 ml per 1 m^2. The test was performed in a glass greenhouse at a temperature of from 18 to 30° C., and the soil was appropriately moistened from the bottom side.
(§2) Using each of the oily extracts obtained in Preparation Example 2, a flowable (emulsion) formulation was prepared according to Preparation Example 2. The herbicidal activity in the post-emergence stage was evaluated by the method according to Test Example 3 except that the dilution ratio of the spray solution with water was fixed to 4-fold dilution.
(§3) Using the liquid formulation prepared in Formulation Example 3, the herbicidal activity in the post-emergence stage was evaluated by the method according to Test Example 3 except that the test was conducted under a fixed condition that the solution was used as a stock solution without being diluted with water. Also, a formulation using water as a substitute of an oily extract, i.e. a formulation containing sodium bicarbonate only was prepared for comparison, and its herbicidal effect was evaluated as a comparative example. The formulation was sprayed uniformly in a spray volume of 200 ml per 1 m^2.
as §3, with “4,” for “3,”, “treatment of weeds” for “stage”, “calcium borate” for “sodium bicarbonate”
as §3, with “5,” for “3,”, “treatment of weeds” for “stage”, “d-limonene” for “sodium bicarbonate”
(§4) Using these essential oils, a flowable (emulsion) formulation was prepared according to Formulation Example 2. The herbicidal activity in the post-emergence treatment of weeds was evaluated by the method according to Test Example 3 except that the dilution ratio of the spray solution with water was fixed to 2-fold dilution.

The test system of experiment [2] is Ipomoea purpurea. The procedure:
as §1, §2, §3
as §3, with “4,” for “3,”, “treatment of weeds” for “stage”, “calcium borate” for “sodium bicarbonate”
as §3, with “5,” for “3,”, “treatment of weeds” for “stage”, “d-limonene” for “sodium bicarbonate”
as §4

For experiment [3], the system named is Avena fatua. Here is the method: as §1, §2, §3
as §3, with “4,” for “3,”, “treatment of weeds” for “stage”, “calcium borate” for “sodium bicarbonate”
as §3, with “5,” for “3,”, “treatment of weeds” for “stage”, “d-limonene” for “sodium bicarbonate”
as §4

Experiment [4] relates to Digitaria adscendens. Here is the method:
as §1, §2, §3
as §3, with “4,” for “3,”, “treatment of weeds” for “stage”, “calcium borate” for “sodium bicarbonate”
as §3, with “5,” for “3,”, “treatment of weeds” for “stage”, “d-limonene” for “sodium bicarbonate”
as §4

For experiment [5], the system named is Chenopodium album. The procedure: as §1, §2, §3
as §3, with “4,” for “3,”, “treatment of weeds” for “stage”, “calcium borate” for “sodium bicarbonate”
as §3, with “5,” for “3,”, “treatment of weeds” for “stage”, “d-limonene” for “sodium bicarbonate”
as §4

Experiment [6] concerns Echinochloa utilis. Here is the method:
as §1, §2, §3
as §3, with “4,” for “3,”, “treatment of weeds” for “stage”, “calcium borate” for “sodium bicarbonate”
as §3, with “5,” for “3,”, “treatment of weeds” for “stage”, “d-limonene” for “sodium bicarbonate”
as §4

[7] abbreviates: undiluted liquid formulation 200 ml/m^2, per 1 m^2: 20 ml of the essential oil and 12 g of calcium borate.
Setting [8] is: undiluted liquid formulation 200 ml/m^2, per 1 m^2: 20 ml of the essential oil and 12 g of sodium bicarbonate.
The mark [9] stands for this setting: undiluted liquid formulation 200 ml/m^2, per 1 m^2: 20 ml of the essential oil and 20 ml of d-limonene.

Consider calcium borate, for which, in experiment [1] (setting [7]), the “Herbicidal activity Amaranthus viridis” value was 4 (36 to 45%). Also, the “Herbicidal activity Ipomoea purpurea” value in experiment [2] (setting [7]) was 3 (26 to 35%). In addition, the “Herbicidal activity Avena fatua” value in experiment [3] (setting [7]) was 5 (46 to 55%). Also, the “Herbicidal activity Digitaria adscendens” value in experiment [4] (setting [7]) was 4 (36 to 45%). The “Herbicidal activity Chenopodium album” value in experiment [5] (setting [7]) is given as 4 (36 to 45%). The “Herbicidal activity Echinochloa utilis” value in experiment [6] (setting [7]) is 4 (36 to 45%).

Take `O=C([O-])O.[Na+]` [sodium bicarbonate]: the “Herbicidal activity Amaranthus viridis” value in experiment [1] (setting [8]) was 3 (26 to 35%). For the same compound, the “Herbicidal activity Ipomoea purpurea” value in experiment [2] (setting [8]) is listed as 2 (16 to 25%). Moreover, in experiment [3] (setting [8]), the “Herbicidal activity Avena fatua” value is 4 (36 to 45%). Further, the “Herbicidal activity Digitaria adscendens” value in experiment [4] (setting [8]) is 4 (36 to 45%). The “Herbicidal activity Chenopodium album” value in experiment [5] (setting [8]) was 4 (36 to 45%). Besides, the “Herbicidal activity Echinochloa utilis” value in experiment [6] (setting [8]) is recorded as 3 (26 to 35%).

Regarding `C=C(C)[C@H]1CC=C(C)CC1` [Comparative Example (d-limonene only), d-limonene], the “Herbicidal activity Amaranthus viridis” value in experiment [1] (setting [9]) is recorded as 6 (56 to 65%). Moreover, the “Herbicidal activity Ipomoea purpurea” value in experiment [2] (setting [9]) is on record as 4 (36 to 45%). In addition, the “Herbicidal activity Avena fatua” value in experiment [3] (setting [9]) is given as 5 (46 to 55%). In experiment [4] (setting [9]), the “Herbicidal activity Digitaria adscendens” value is 7 (66 to 75%). For the same compound, the “Herbicidal activity Chenopodium album” value in experiment [5] (setting [9]) is listed as 6 (56 to 65%). For the same compound, the “Herbicidal activity Echinochloa utilis” value in experiment [6] (setting [9]) is listed as 5 (46 to 55%).
